According to ChEMBL document CHEMBL1201862, “PubChem BioAssay data set” (2004):
Calls of active or inactive are those of the source.

Experiments:
[1] = Luminescence Cell-Based Dose-Confimation HTS to Identify Inhibitors of 5'UTR Stem-Loop Driven Alpha-Synuclein mRNA Translation in H4 Neuroglioblastoma Cells. [Related pubchem assays: 1827 (Project Summary), 1813 (Primary HTS)]; assay type: functional
NADPH oxidase 1 = NADPH oxidase 1 (Homo sapiens, UniProt Q9Y5S8); assay type: functional, cell-based;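 further: Cell-based assay with luminescence read-out, IC50 derived from inhibitor dose-response curves; intracellular ROS from endogenous NOX1 in intact HT29 colon cancer cells; potency of inhibitors that lower the ROS luminescence signal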
[2] = target: Mothers against decapentaplegic homolog 3 (Homo sapiens, UniProt P84022); assay: blockers of Smad3 complex formation in lysate – cell lysate, secondary confirmation, chemiluminescent ELISA, HEK293 lysate, dose response (AID 1058); assay type: functional
Leucine aminopeptidase = Leucine aminopeptidase (Plasmodium falciparum 3D7, UniProt Q8IL11); assay: P. falciparum M17LAP inhibitors, primary screen, biochemical, fluorogenic H-Leu-NHMec substrate, 1536-well (AID 1619); assay type: functional
[3] = target: T1, Eukaryotic translation initiation factor 2-alpha kinase 3 (Homo sapiens, UniProt Q9NZJ5); assay: Dose response cell-based high-throughput screening assay to measure PERK inhibition. [Related pubchem assays: 1416 ]; assay type: functional
[4] = target: T1, Eukaryotic translation initiation factor 2-alpha kinase 3; assay: Counterscreen assay for PERK inhibitors: Dose response cell-based high throughput screening assay to measure inhibition of PERK at 6 hours. [Related pubchem assays: 1522, 1416 ]; assay type: functional
HEK293 = assay: Fluorescence-based counterscreen for potentiators or agonists of NPY-Y2: cell-based high-throughput dose response assay to identify inhibitors of cyclic nucleotide gated ion channel (CNGC) activity. In this assay, the parental HEK293 cell line transfected with a cyclic-nucleotide gated ion channel (CNGC)-based cAMP sensor is used to measure inhibition of isoproterenol-induced CNGC activity by test compound.; assay type: functional; settings: Homo sapiens;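 further: stimulus is 1 µM isoproterenol at EC100 plus PDE inhibitor Ro 20-1724 at 25 µM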
[5] = target: T2, Neuropeptide Y receptor type 2 (Homo sapiens, UniProt P49146); assay: Fluorescence-based cell-based high-throughput dose response assay for agonists of NPY-Y2. [Related pubchem assays: 1703 (Screening assay (CNGC inhibitors).), 1359 (Screening assay (NPY-Y2 potentiators or agonists).), 1304 (Screening assay (NPY-Y1 potentiators or agonists).), 1710 (Screening assay (NPY-Y2 agonists).), 1791 (Summary AID.)]; assay type: functional
T2 sequence (P49146 whole entry): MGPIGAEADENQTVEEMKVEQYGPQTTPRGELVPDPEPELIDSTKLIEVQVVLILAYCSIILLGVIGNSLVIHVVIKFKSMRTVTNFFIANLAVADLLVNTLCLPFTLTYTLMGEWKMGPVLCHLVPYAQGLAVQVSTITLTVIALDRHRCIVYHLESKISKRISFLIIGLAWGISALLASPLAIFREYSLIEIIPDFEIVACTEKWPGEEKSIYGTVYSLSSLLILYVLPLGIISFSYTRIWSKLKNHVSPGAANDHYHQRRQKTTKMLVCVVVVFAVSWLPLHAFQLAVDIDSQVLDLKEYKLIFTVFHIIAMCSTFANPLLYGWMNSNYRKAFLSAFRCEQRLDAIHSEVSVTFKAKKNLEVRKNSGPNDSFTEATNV

[6] = target: T3, Neuropeptide Y receptor type 1 (Homo sapiens, UniProt P25929); assay: Fluorescence-based counterscreen for agonists of NPY-Y2: cell-based high-throughput dose response assay for agonists of NPY-Y1.; assay type: functional
T3 sequence (P25929 whole entry): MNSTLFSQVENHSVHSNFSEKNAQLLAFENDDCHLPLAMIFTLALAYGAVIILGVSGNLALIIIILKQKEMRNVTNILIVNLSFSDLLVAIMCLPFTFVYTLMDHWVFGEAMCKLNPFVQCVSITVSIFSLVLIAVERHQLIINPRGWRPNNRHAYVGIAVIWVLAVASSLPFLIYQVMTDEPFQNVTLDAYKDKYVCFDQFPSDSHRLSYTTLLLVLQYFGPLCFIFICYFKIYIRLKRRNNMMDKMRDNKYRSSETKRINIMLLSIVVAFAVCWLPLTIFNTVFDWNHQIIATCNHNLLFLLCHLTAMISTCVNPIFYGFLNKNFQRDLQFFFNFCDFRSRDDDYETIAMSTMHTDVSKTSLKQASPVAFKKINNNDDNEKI

[7] = test system: Streptococcus sp. 'group A'; assay: Streptococcus pyogenes SK(-)GAS viability under kanamycin – luminescence, BacTiterGlo, confirmation, counter-screen for streptokinase expression inhibitor project, dose response (AID 1900); assay type: functional, organism-based
cells [8] = assay type: functional, cell-based
[9] = target: Serine/threonine-protein phosphatase PP1-alpha catalytic subunit (Homo sapiens, UniProt P62136); assay: inhibition of protein phosphatase 1 activity – biochemical, fluorescence, dose response (AID 2403);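 further: phosphatase turnover of OMFP into fluorescent 3-O-methylfluorescein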
Streptokinase A = target: T4, Streptokinase A (Streptococcus pyogenes serotype M1, UniProt P10520); assay: viability-normalized secreted streptokinase activity reduction – plasminogen activation absorbance, OD405, dose response (AID 1914); assay type: functional, Streptococcus pyogenes M1 GAS;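 further: secreted streptokinase activity via plasminogen activation per viability signal from cell pellet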
T4 sequence (P10520 whole entry): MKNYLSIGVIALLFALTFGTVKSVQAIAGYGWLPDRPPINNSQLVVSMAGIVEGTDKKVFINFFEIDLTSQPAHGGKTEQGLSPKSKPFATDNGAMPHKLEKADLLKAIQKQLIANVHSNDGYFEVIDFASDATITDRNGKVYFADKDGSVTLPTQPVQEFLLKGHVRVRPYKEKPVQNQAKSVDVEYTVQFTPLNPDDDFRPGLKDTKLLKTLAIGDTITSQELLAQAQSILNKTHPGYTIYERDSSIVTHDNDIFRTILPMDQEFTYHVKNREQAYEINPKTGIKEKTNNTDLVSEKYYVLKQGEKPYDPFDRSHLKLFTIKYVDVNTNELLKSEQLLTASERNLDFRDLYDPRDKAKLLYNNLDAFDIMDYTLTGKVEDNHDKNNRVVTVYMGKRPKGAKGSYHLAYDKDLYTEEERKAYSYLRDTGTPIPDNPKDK

[10] = HPDE-C7 pancreatic duct cell viability loss – fluorescence, HTS (AID 430); assay type: functional, cell-based; settings: Homo sapiens
[11] = Trypanosoma cruzi growth suppression in host cells – NIH3T3 host cells, beta-gal luminescence, confirmation (AID 2044); assay type: functional, cell-based;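 further: intracellular parasites grown in NIH/3T3 mouse fibroblasts as host cells; luminescent beta-galactosidase reporter signal from transgenic T. cruzi replicating inside host cells; inhibitors lower the luminescence signal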
[12] = viability loss of HPDE-C7K cells – cell-based, fluorescence, HTS, primary screen (AID 431); assay type: functional; settings: Homo sapiens
cells [13] = assay type: functional, cell-based; remark: listed apart in the source
[14] = target: T5, Serine/threonine-protein phosphatase (Homo sapiens, UniProt Q9BPW0); assay: Counterscreen for inhibitors of PP1: fluorescence-based biochemical high throughput dose response assay to identify inhibitors of Protein Phosphatase 5 (PP5). [Related pubchem assays: 2034 (Summary (PP5 inhibitors)), 1987 (PP5 inhibitors in singlate), 2235 (PP1 inhibitors in singlate)]
T5 sequence (Q9BPW0 whole entry): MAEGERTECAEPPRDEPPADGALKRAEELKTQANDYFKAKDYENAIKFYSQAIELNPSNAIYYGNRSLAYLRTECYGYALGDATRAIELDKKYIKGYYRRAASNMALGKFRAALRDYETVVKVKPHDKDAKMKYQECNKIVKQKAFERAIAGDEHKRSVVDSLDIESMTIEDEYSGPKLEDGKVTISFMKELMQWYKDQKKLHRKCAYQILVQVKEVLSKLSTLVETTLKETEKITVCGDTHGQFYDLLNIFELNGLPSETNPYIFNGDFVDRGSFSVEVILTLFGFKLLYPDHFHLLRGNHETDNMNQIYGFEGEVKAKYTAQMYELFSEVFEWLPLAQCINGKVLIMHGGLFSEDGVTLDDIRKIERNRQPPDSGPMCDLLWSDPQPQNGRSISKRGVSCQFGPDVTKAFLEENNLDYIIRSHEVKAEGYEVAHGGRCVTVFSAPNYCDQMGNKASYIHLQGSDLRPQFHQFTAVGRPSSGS

[15] = NIH3T3 cell viability loss – ATP luminescence, mouse fibroblasts, counter-screen, dose response (AID 2010); assay type: functional, cell-based;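 further: cells exposed to compound for about 90 hours before reading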
Streptococcus = assay: GAS UMAA2166 growth inhibition – luminescence, BacTiterGlo, counter-screen for streptokinase expression inhibitor project, dose response (AID 1915); assay type: functional, organism-based;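 further: potency for reduction of bacterial viability or growth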
Nonstructural protein 1 = Nonstructural protein 1 (Influenza A virus, UniProt Q194T2); assay type: functional, Influenza A virus (A/California/07/2009(H1N1))
INS1 = assay: INS-1E survival protection against cytokine death – cell-based, luminescence, retest, dose response (AID 449756); assay type: functional; settings: Rattus norvegicus;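 further: cell death triggered by IL-1 beta plus TNF-alpha plus IFN-gamma mixture; protective hits raise ATP signal compared with cytokine alone wells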
[16] = reduction of Shn3 3'UTR-driven luciferase in osteoblasts – cell-based, Clone20 osteoblasts, firefly luciferase, cherry-picked, dose response (AID 624132); assay type: functional;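 further: firefly luciferase luminescence from reporter carrying the Shn3 3'UTR in osteoblasts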
[17] = loss of viability in HepG2 cells – cell-based, CellTiter-Glo, cherry-picked, cytotoxicity control for Shn3 inhibitor project, dose response (AID 624134); assay type: functional
[18] = non-specific 3'UTR reporter inhibition in Clone20-Shn3RL – cell-based, Renilla luciferase, cherry-picked, counter-screen for Shn3 inhibitor project, dose response (AID 624133); assay type: functional
[19] = IC50 of Artemis nuclease activity blockers – biochemical, fluorescence intensity, dose response (AID 720701); assay type: functional;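 further: Artemis endonuclease enzyme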
[20] = viability loss in HepG2 hepatoma cells – cell-based, ATP luminescence, cherry-pick, activator set 2, cytotoxicity control, dose response (AID 1053143); assay type: functional

T1 sequence (Q9NZJ5 whole entry): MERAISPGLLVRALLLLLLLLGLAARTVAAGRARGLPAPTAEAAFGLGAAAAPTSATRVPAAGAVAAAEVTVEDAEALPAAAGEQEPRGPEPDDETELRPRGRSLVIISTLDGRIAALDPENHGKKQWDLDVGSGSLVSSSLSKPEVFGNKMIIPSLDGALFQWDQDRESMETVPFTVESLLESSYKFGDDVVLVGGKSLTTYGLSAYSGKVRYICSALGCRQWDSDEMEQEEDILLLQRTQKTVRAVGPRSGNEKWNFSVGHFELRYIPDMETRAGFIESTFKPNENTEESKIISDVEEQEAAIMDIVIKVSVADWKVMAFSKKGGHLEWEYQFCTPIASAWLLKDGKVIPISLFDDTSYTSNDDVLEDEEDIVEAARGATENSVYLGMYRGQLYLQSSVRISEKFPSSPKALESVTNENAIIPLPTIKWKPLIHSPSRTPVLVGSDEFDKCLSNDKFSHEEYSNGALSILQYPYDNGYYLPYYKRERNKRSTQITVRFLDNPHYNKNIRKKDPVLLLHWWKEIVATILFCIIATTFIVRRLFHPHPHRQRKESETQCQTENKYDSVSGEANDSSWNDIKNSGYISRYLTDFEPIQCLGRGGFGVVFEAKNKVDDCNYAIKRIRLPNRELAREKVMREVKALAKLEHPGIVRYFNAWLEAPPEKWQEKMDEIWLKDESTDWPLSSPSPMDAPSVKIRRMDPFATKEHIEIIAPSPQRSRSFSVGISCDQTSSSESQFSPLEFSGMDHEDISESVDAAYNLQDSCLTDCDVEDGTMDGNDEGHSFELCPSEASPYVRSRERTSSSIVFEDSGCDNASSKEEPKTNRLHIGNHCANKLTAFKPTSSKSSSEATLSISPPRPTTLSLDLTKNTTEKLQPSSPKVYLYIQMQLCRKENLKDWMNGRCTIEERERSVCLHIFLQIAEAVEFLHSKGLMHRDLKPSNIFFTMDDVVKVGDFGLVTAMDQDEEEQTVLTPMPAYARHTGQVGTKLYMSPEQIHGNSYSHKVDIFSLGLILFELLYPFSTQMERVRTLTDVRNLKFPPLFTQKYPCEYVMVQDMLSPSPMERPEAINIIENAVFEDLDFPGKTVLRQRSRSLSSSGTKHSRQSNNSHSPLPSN
Chain of Nonstructural protein 1 (Q194T2 whole entry): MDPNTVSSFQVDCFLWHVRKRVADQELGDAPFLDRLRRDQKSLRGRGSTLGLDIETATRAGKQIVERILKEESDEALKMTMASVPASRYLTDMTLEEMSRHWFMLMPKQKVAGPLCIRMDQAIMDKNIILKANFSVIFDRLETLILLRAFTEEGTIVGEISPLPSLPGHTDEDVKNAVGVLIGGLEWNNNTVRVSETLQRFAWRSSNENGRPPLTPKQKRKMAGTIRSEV
Chain of Serine/threonine-protein phosphatase PP1-alpha catalytic subunit (P62136 whole entry): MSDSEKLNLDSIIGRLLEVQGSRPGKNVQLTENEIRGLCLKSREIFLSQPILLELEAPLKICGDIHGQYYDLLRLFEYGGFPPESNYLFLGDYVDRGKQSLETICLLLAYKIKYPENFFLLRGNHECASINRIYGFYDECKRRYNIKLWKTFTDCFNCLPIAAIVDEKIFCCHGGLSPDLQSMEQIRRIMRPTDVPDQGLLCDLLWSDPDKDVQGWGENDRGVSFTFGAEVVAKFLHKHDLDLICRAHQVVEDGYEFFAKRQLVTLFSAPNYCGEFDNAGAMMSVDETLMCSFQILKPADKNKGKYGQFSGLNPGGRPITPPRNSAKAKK
Chain of Mothers against decapentaplegic homolog 3 (P84022 whole entry): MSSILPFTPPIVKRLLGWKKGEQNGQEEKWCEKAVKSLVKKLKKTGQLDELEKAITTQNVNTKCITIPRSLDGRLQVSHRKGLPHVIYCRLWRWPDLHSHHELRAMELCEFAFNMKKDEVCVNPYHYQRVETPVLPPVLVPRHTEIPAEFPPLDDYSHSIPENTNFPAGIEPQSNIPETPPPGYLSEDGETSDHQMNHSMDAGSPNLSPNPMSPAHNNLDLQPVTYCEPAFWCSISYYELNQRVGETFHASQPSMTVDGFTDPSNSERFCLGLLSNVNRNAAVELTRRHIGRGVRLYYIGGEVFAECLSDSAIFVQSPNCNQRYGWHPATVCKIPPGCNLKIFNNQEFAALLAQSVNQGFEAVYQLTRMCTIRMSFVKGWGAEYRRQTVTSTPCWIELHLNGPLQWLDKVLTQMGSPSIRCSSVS
Chain of NADPH oxidase 1 (Q9Y5S8 whole entry): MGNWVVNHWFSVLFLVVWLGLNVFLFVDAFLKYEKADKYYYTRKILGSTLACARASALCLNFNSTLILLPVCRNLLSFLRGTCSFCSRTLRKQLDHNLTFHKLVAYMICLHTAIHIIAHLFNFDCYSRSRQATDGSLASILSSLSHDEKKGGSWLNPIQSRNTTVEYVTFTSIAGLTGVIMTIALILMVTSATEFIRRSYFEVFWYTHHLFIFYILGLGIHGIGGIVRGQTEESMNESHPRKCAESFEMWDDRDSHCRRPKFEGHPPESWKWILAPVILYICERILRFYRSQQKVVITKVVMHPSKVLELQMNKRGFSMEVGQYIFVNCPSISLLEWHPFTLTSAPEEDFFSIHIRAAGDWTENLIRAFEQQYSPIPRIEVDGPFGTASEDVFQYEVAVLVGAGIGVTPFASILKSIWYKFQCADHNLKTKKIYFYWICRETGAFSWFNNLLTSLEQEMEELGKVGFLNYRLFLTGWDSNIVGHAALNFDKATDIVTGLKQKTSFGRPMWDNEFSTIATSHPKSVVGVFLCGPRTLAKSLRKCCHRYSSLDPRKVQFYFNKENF
Chain of Leucine aminopeptidase (Q8IL11 whole entry): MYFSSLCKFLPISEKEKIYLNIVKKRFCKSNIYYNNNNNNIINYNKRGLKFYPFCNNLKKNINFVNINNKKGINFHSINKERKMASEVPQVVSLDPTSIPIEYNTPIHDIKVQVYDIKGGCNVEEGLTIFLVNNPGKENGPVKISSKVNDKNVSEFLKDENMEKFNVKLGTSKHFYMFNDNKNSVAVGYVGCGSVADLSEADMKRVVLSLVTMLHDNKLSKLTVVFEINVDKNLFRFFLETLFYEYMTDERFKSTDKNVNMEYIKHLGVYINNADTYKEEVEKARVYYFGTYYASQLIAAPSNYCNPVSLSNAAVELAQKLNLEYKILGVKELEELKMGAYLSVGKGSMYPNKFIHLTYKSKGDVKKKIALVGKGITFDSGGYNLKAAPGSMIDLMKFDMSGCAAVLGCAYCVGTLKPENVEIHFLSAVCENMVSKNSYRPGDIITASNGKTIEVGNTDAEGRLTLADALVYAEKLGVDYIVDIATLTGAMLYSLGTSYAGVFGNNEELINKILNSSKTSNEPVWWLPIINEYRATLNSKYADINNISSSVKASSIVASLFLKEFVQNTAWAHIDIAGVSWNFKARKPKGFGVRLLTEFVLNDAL

In the case of `Cc1cccc(C)c1-n1nnnc1SCc1nc(N)nc(N(C)C)n1`, the EC50 [1] is reported as 8.3 µM (active).

For `CN(C)c1ccc(-c2nc(-c3ccccc3)c(-c3ccccc3)[nH]2)cc1`, the IC50 (NADPH oxidase 1) was 7.95 µM (active).

In the case of `COc1cc(C(c2cc3c(cc2O)OCO3)N2CCOCC2)cc(OC)c1OC` (configuration not stated), the IC50 [2] is reported as 9.66 µM (not active).

In the case of `COc1ccc(NC(=O)Nc2ccc(C(=O)N3CCOCC3)cc2)cc1`, the IC50 (Leucine aminopeptidase) is reported as 31.6 µM (active).

In the case of `CCSc1nnc(NC(=O)c2cc(-c3ccccc3O)[nH]n2)s1`, the EC50 [3] is reported as > 55.7 µM (not active) and the EC50 [4] is reported as > 55.7 µM (not active).

In the case of `C=CCc1ccccc1OCC(O)CN1CCN(c2ccc(C)cc2)CC1` (configuration not stated), the EC50 (HEK293) is reported as 1.78 µM (active), the EC50 [5] is reported as 14.8 µM (not active) and the EC50 [6] is reported as 8.5 µM (active).

In the case of `Oc1c(C(Nc2ccccn2)c2ccccn2)ccc2cccnc12` (configuration not stated), the EC50 [7] is reported as 7.44 µM (active), the EC50 (cells [8]) is reported as 9.9 µM (active) and the IC50 [9] is reported as 3.82 µM (active). The EC50 (Streptokinase A) was > 150 µM (not active), the EC50 [10] was 17.6 µM (active) and the EC50 [11] was 1.22 µM (active). The EC50 [12] was > 20 µM (not active), the EC50 (cells [13]) was > 350 µM (not active) and the IC50 [14] was > 67 µM (not active). The EC50 [15] was 5.87 µM (active), the EC50 (Streptococcus) was 14.8 µM (active) and the IC50 (Nonstructural protein 1) was 8.2 µM (active). For the same compound, the AC50 (INS1) was 2.79 µM (active), the AC50 [16] was 4.36 µM (active) and the AC50 [17] was 6 µM (active). For the same compound, the AC50 [18] was 2.88 µM (active), the IC50 [19] was 11.4 µM (active) and the AC50 [20] was 21.9 µM (active).
